Laboratory results taken from PubChem BioAssay AID1845196 (Molecular Pharmacology Branch, DTP, NCI, 2023).
Several values for one entry are separate records, joined by “and”; a condition that tells them apart may be missing. Identical values can stand only once.

System: 292921-168-R tumor spheroid viability
Assay: Anticancer human tumor 292921-168-R patient-derived pancreatic carcinoma cell line growth inhibition
Details: spheroids with HUVEC and MSC; for viability, T/C: stronger effect = lower value
Summary of the method: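 Complex tumor spheroids combined malignant cells with endothelial cells and mesenchymal stem cells. DNA-damaging drugs and DNA repair inhibitors were tested alone and in combination, at half-log dilutions down from clinical Cmax (top 10 microM if Cmax unknown), 0.25% DMSO final.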

[1] = curve of first compound, second compound 1 µM
[2] = curve of first compound, second compound 3.16 µM
[3] = curve of first compound, second compound 10 µM
[4] = curve of first compound, second compound 31.6 µM
[5] = curve of first compound, second compound 100 µM
[6] = second compound 1 µM, first compound 0.0949 µM
[7] = second compound 1 µM, first compound 0.3 µM
[8] = second compound 1 µM, first compound 0.949 µM
[9] = second compound 1 µM, first compound 3 µM
[10] = second compound 3.16 µM, first compound 0.0949 µM
[11] = second compound 3.16 µM, first compound 0.3 µM
[12] = second compound 3.16 µM, first compound 0.949 µM
[13] = second compound 3.16 µM, first compound 3 µM
[14] = second compound 10 µM, first compound 0.0949 µM
[15] = second compound 10 µM, first compound 0.3 µM
[16] = second compound 10 µM, first compound 0.949 µM
[17] = second compound 10 µM, first compound 3 µM
[18] = second compound 31.6 µM, first compound 0.0949 µM
[19] = second compound 31.6 µM, first compound 0.3 µM
[20] = second compound 31.6 µM, first compound 0.949 µM
[21] = second compound 31.6 µM, first compound 3 µM
[22] = second compound 100 µM, first compound 0.0949 µM
[23] = second compound 100 µM, first compound 0.3 µM
[24] = second compound 100 µM, first compound 0.949 µM
[25] = second compound 100 µM, first compound 3 µM
[26] = second compound 1 µM, first compound 0.0316 µM
[27] = second compound 1 µM, first compound 0.1 µM
[28] = second compound 1 µM, first compound 0.316 µM
[29] = second compound 1 µM, first compound 1 µM
[30] = second compound 1 µM, first compound 3.16 µM
[31] = second compound 1 µM, first compound 10 µM
[32] = second compound 3.16 µM, first compound 0.0316 µM
[33] = second compound 3.16 µM, first compound 0.1 µM
[34] = second compound 3.16 µM, first compound 0.316 µM
[35] = second compound 3.16 µM, first compound 1 µM
[36] = second compound 3.16 µM, first compound 3.16 µM
[37] = second compound 3.16 µM, first compound 10 µM
[38] = second compound 10 µM, first compound 0.0316 µM
[39] = second compound 10 µM, first compound 0.1 µM
[40] = second compound 10 µM, first compound 0.316 µM
[41] = second compound 10 µM, first compound 1 µM
[42] = second compound 10 µM, first compound 3.16 µM
[43] = second compound 10 µM, first compound 10 µM
[44] = second compound 31.6 µM, first compound 0.0316 µM
[45] = second compound 31.6 µM, first compound 0.1 µM
[46] = second compound 31.6 µM, first compound 0.316 µM
[47] = second compound 31.6 µM, first compound 1 µM
[48] = second compound 31.6 µM, first compound 3.16 µM
[49] = second compound 31.6 µM, first compound 10 µM
[50] = second compound 100 µM, first compound 0.0316 µM
[51] = second compound 100 µM, first compound 0.1 µM
[52] = second compound 100 µM, first compound 0.316 µM
[53] = second compound 100 µM, first compound 1 µM
[54] = second compound 100 µM, first compound 3.16 µM
[55] = second compound 100 µM, first compound 10 µM
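Also: spheroids exposed to compounds for 7 days.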

For O=C(c1cc(Cc2n[nH]c(=O)c3ccccc23)ccc1F)N1CCN(C(=O)C2CC2)CC1 + Cn1nnc2c(C(N)=O)ncn2c1=O, the IC50 [1] was 12.9 µM, the IC50 [2] was 17.7 µM and the IC50 [3] was 8.8 µM. It also gave an IC50 [4] of 4.05 µM, an IC50 [5] of 0.573 µM and a viability, T/C [6] of 89.2%. It also gave a viability, T/C [7] of 93.1%, a viability, T/C [8] of 87% and a viability, T/C [9] of 86.1%. It also gave a viability, T/C (second compound 1 µM, first compound 9.49 µM) of 55.6%, a viability, T/C (second compound 1 µM, first compound 30 µM) of 34.2% and a viability, T/C [10] of 100%. It also gave a viability, T/C [11] of 101%, a viability, T/C [12] of 94% and a viability, T/C [13] of 93.6%. The viability, T/C (second compound 3.16 µM, first compound 9.49 µM) was 63.4%, the viability, T/C (second compound 3.16 µM, first compound 30 µM) was 38.5% and the viability, T/C [14] was 94.7%. The viability, T/C [15] was 92.4%, the viability, T/C [16] was 96.5% and the viability, T/C [17] was 82.2%. It also gave a viability, T/C (second compound 10 µM, first compound 9.49 µM) of 48%, a viability, T/C (second compound 10 µM, first compound 30 µM) of 28.3% and a viability, T/C [18] of 88%. It also gave a viability, T/C [19] of 86.6%, a viability, T/C [20] of 76% and a viability, T/C [21] of 56.8%. It also gave a viability, T/C (second compound 31.6 µM, first compound 9.49 µM) of 32.2%, a viability, T/C (second compound 31.6 µM, first compound 30 µM) of 21.4% and a viability, T/C [22] of 74.6%. For the same molecule, the viability, T/C [23] was 58.2%, the viability, T/C [24] was 44% and the viability, T/C [25] was 29%. The viability, T/C (second compound 100 µM, first compound 9.49 µM) was 19.1% and the viability, T/C (second compound 100 µM, first compound 30 µM) was 17.2%.

With CC(C)n1c(=O)n(C)c2cnc3cc(F)c(-c4ccc(OCCCN5CCCCC5)nc4)cc3c21 + Cn1nnc2c(C(N)=O)ncn2c1=O the IC50 [1] was 4.66 µM, the IC50 [2] was 5.43 µM and the IC50 [3] was 5.38 µM. It also gave an IC50 [4] of 4.64 µM, an IC50 [5] of 4.29 µM and a viability, T/C [26] of 96.5%. For the same molecule, the viability, T/C [27] was 94.2%, the viability, T/C [28] was 89.6% and the viability, T/C [29] was 79.6%. The viability, T/C [30] was 63.3%, the viability, T/C [31] was 26% and the viability, T/C [32] was 99.2%. It also gave a viability, T/C [33] of 94.8%, a viability, T/C [34] of 85.6% and a viability, T/C [35] of 86.8%. It also gave a viability, T/C [36] of 73.8%, a viability, T/C [37] of 25.1% and a viability, T/C [38] of 90.4%. For the same molecule, the viability, T/C [39] was 96.2%, the viability, T/C [40] was 89.5% and the viability, T/C [41] was 84.2%. For the same molecule, the viability, T/C [42] was 69.8%, the viability, T/C [43] was 27.4% and the viability, T/C [44] was 89.9%. The viability, T/C [45] was 91.2%, the viability, T/C [46] was 83.6% and the viability, T/C [47] was 77.9%. The viability, T/C [48] was 62.8%, the viability, T/C [49] was 25.9% and the viability, T/C [50] was 72.2%. The viability, T/C [51] was 74.1%, the viability, T/C [52] was 79.6% and the viability, T/C [53] was 77.2%. It also gave a viability, T/C [54] of 57.9% and a viability, T/C [55] of 28.1%.

In the case of CNCc1ccc(-c2cc(-c3nc(-c4ccc(S(=O)(=O)C(C)C)cc4)cnc3N)on2)cc1, the viability, T/C (compound 0.00949 µM) is reported as 101% and 106% and 104%, the viability, T/C (compound 0.03 µM) is reported as 101% and 94.1% and 95.1% and the viability, T/C (compound 0.0949 µM) is reported as 79.2% and 80% and 91.3%. For the same molecule, the viability, T/C (compound 0.3 µM) was 49.7% and 37.8% and 38.7%, the viability, T/C (compound 0.949 µM) was 26.5% and 25.3% and 20.8% and the viability, T/C (compound 3 µM) was 11.9% (2×) and 13.2%. The IC50 (curve of compound) was 0.307 µM and 0.226 µM and 0.236 µM.

With [2H]c1nc(C)nc([2H])c1-c1cc(NC[C@@H](C)c2cccc3c(C(=O)NC)ccnc23)ncn1 + Cn1nnc2c(C(N)=O)ncn2c1=O the IC50 [1] was greater than 10 µM, the IC50 [2] was greater than 10 µM and the IC50 [3] was greater than 10 µM. It also gave an IC50 [4] greater than 10 µM, an IC50 [5] greater than 10 µM and a viability, T/C [26] of 92.5%. For the same molecule, the viability, T/C [27] was 99.7%, the viability, T/C [28] was 93.5% and the viability, T/C [29] was 76.6%. For the same molecule, the viability, T/C [30] was 91.5%, the viability, T/C [31] was 71.8% and the viability, T/C [32] was 91%. The viability, T/C [33] was 91.5%, the viability, T/C [34] was 90.6% and the viability, T/C [35] was 93.7%. It also gave a viability, T/C [36] of 88.7%, a viability, T/C [37] of 77.4% and a viability, T/C [38] of 89.2%. For the same molecule, the viability, T/C [39] was 86.4%, the viability, T/C [40] was 87.3% and the viability, T/C [41] was 93.7%. It also gave a viability, T/C [42] of 87.4%, a viability, T/C [43] of 79.6% and a viability, T/C [44] of 86.4%. It also gave a viability, T/C [45] of 87.1%, a viability, T/C [46] of 86.9% and a viability, T/C [47] of 86.1%. The viability, T/C [48] was 89.4%, the viability, T/C [49] was 75.4% and the viability, T/C [50] was 81.4%. For the same molecule, the viability, T/C [51] was 81.5%, the viability, T/C [52] was 84.1% and the viability, T/C [53] was 81.2%. For the same molecule, the viability, T/C [54] was 79.1% and the viability, T/C [55] was 70.6%.

CNCc1ccc(-c2cc(-c3nc(-c4ccc(S(=O)(=O)C(C)C)cc4)cnc3N)on2)cc1 + Cn1nnc2c(C(N)=O)ncn2c1=O was tested, and the IC50 [1] was 0.205 µM, the IC50 [2] was 0.212 µM and the IC50 [3] was 0.214 µM. For the same molecule, the IC50 [4] was 0.178 µM, the IC50 [5] was 0.136 µM and the viability, T/C (second compound 1 µM, first compound 0.00949 µM) was 90%. It also gave a viability, T/C (second compound 1 µM, first compound 0.03 µM) of 85.7%, a viability, T/C [6] of 70.7% and a viability, T/C [7] of 37.7%. It also gave a viability, T/C [8] of 23.1%, a viability, T/C [9] of 9.35% and a viability, T/C (second compound 3.16 µM, first compound 0.00949 µM) of 97.1%. The viability, T/C (second compound 3.16 µM, first compound 0.03 µM) was 92.8%, the viability, T/C [10] was 67.9% and the viability, T/C [11] was 41.9%. The viability, T/C [12] was 22%, the viability, T/C [13] was 12% and the viability, T/C (second compound 10 µM, first compound 0.00949 µM) was 96.4%. The viability, T/C (second compound 10 µM, first compound 0.03 µM) was 88.6%, the viability, T/C [14] was 71.7% and the viability, T/C [15] was 40.2%. The viability, T/C [16] was 20.4%, the viability, T/C [17] was 9.2% and the viability, T/C (second compound 31.6 µM, first compound 0.00949 µM) was 91.6%. For the same molecule, the viability, T/C (second compound 31.6 µM, first compound 0.03 µM) was 79.2%, the viability, T/C [18] was 72.2% and the viability, T/C [19] was 31.6%. For the same molecule, the viability, T/C [20] was 17.2%, the viability, T/C [21] was 8.61% and the viability, T/C (second compound 100 µM, first compound 0.00949 µM) was 81.9%. The viability, T/C (second compound 100 µM, first compound 0.03 µM) was 82.3%, the viability, T/C [22] was 61.5% and the viability, T/C [23] was 23.9%. The viability, T/C [24] was 13.1% and the viability, T/C [25] was 7.83%.
